The values that follow come from paper PMC11207065, “Abietane Diterpenes from Medusantha martiusii and Their Anti-Neuroinflammatory Activity” (Molecules, 2024).

Holding throughout (format): cell-based
Data set [1] can be described thus: Cell viability (MTT assay) in BV2 cells. To be noted: mouse, BV2 microglial cells, mean ± SEM (n = 5). On the procedure: The cytotoxicity of compounds 1–7 was evaluated using the MTT (3-(4,5-dimethylthiazol-2-yl)-2,5-diphenyltetrazolium bromide) assay. The microglial BV2 cell line was obtained from the Rio de Janeiro Cell Bank (BCRJ), Brazil. The cells were cultured in Roswell Park Memorial Institute medium (RPMI; Sigma Aldrich, St. Louis, MO, USA) supplemented with 10% fetal bovine serum (FBS; Gibco, Grand Island, NY, USA) and 1% penicillin-streptomycin (Sigma Aldrich) at 37 °C with 5% CO2. Cells were seeded into 96-well plates at 1 × 10^5 cells/mL and incubated overnight. After that, the cells were incubated with compounds 1 to 7 (12.5, 25, or 50 μM) in five replicates for 24 h. Then, 110 μL of the supernatant were removed, and 10 μL of MTT solution (5 mg/mL) (Sigma Aldrich, St. Louis, MO, USA) were added. The plates were further incubated for four hours, followed by the addition of sodium dodecyl sulfate (SDS) (100 µL/well) to dissolve the formazan. Optical densities were measured using a spectrophotometer (BioTek Instruments microplate reader, Sinergy HT, Winooski, VT, USA) at a wavelength of 570 nm.
A general note: Tetrazolium assays rely on reduction of a dye to a coloured formazan, in cell work by metabolically active cells.

The test system of data set [2] is TNF-α release from LPS and IFN-γ-stimulated BV2 cells. Put plainly: TNF-α measurement (ELISA) in LPS and IFN-γ-stimulated BV2 cells. To be noted: 12.5 µM, 24 h. Here is the method:
(§1) To determine the NO and TNF-α levels, BV2 cells were seeded in 96-well plates (1 × 10^6 cells/mL) in RPMI medium supplemented with 10% FBS and 1% penicillin-streptomycin in a 5% CO2 incubator at 37 °C. After four hours, the cells were exposed to LPS (500 ng/mL, Sigma Aldrich) and IFN-γ (5 ng/mL, Thermo Fisher) in the absence or presence of compounds 1 to 7 at a final concentration of 12.5 µM (for NO and TNF-α measurement) or 3.125–25 µM (to calculate the IC50 values on NO production inhibition), in five replicates. Quercetin (20 µM) was used as a positive control. After 24 h, cell-free supernatants were collected for NO quantification using the Griess method or stored at −80 °C for cytokine concentration determination. The TNF-α concentrations in the BV2 cell culture supernatants were assessed via enzyme-linked immunosorbent assay (ELISA) with an Invitrogen kit (Thermo Fisher, Viena, Austria).
For orientation: ELISA stands for enzyme-linked immunosorbent assay.

The test system of data set [3] is nitric oxide production in LPS and IFN-γ-stimulated BV2 cells. Put plainly: Nitric oxide (nitrite, Griess method) measurement in LPS and IFN-γ-stimulated BV2 cells. To be noted: 24 h; for Effect on nitrite (NO) levels versus control group: LPS and IFN-γ-stimulated BV2 cells; for IC50: Mus musculus, BV-2, LPS (500 ng/mL) and IFN-γ (5 ng/mL)-stimulated BV2 cells, 3.125–25 µM, mean ± SEM, read-out: IC50 on nitric oxide production inhibition. Here is the method:
as §1

For the molecule `CC(C)C1=CC(=O)C2=C(C1=O)C(O)CC1C2(C)CC(O)C(O)C1(C)C` (stereo not shown) [Compound 1, Medusanthol A], in data set [1], the viability at 24 h, 12.5 µM turned out to be 88 ± 2.57%; the viability at 24 h, 25 µM turned out to be 85.1 ± 1.54%; the viability at 24 h, 50 µM came to 76.3 ± 2.16%. Also, the “Effect on TNF-α levels versus control group” value in data set [2] was “significantly reduced TNF-α levels”. Besides, the “Effect on nitrite (NO) levels versus control group” value in data set [3] (12.5 µM) is given as “significantly reduced nitrite levels”. The IC50 in data set [3] is 3.12 ± 0.75 µM.
In data set [1], `CC(C)c1cc2c(cc1O)C1(C)CC(O)C(O)C(C)(C)C1CC2=O` (stereo not shown) [Compound 2, Medusanthol B] yielded a viability at 24 h, 12.5 µM of 81.93 ± 0.65%; a viability at 24 h, 25 µM of 85.84 ± 0.85%; a viability at 24 h, 50 µM of 75 ± 3.11%. For the same molecule, the “Effect on TNF-α levels versus control group” value in data set [2] was “significantly reduced TNF-α levels”. Also, the “Effect on nitrite (NO) levels versus control group” value in data set [3] (12.5 µM) is “significantly reduced nitrite levels”. For the same molecule, the 50% inhibitory concentration (IC50) in data set [3] worked out at 15.5 ± 7.56 µM.
Consider `CC(C)c1cc2c(cc1O)C1(C)CC(O)C(O)C(C)(C)C1CC2` (stereo not shown) [Compound 3, Medusanthol C], for which, in data set [1], the viability at 24 h, 12.5 µM is 87.4 ± 2.35%; the viability at 24 h, 25 µM was determined as 82.2 ± 0.96%; the viability at 24 h, 50 µM is 76.4 ± 3.14%. Also, the “Effect on nitrite (NO) levels versus control group” value in data set [3] (12.5 µM) is listed as “significantly reduced nitrite levels”.
In data set [1], `CC(C)c1cc2c(cc1O)[C@@]1(C)C[C@@H](O)CC(C)(C)[C@@H]1CC2` [Compound 4, salviol] came in with a viability at 24 h, 12.5 µM of 92.29 ± 0.6%; a viability at 24 h, 25 µM of 85.41 ± 0.82%; a viability at 24 h, 50 µM of 73.6 ± 2.73%. In data set [3] (12.5 µM), the “Effect on nitrite (NO) levels versus control group” value is “significantly reduced nitrite levels”.
Turning to `CC(=O)OC1CC(C)(C)C2CCc3cc(C(C)C)c(O)cc3C2(C(=O)O)C1` (stereo not shown) [Compound 5, Medusanthol D], in data set [1], the viability at 24 h, 12.5 µM was 86.2 ± 4.53%; the viability at 24 h, 25 µM came out at 86.8 ± 2.52%; the viability at 24 h, 50 µM was found to be 82.9 ± 3.63%. Besides, in data set [3] (12.5 µM), the “Effect on nitrite (NO) levels versus control group” value is given as “No significant effect”.
The matching figures for `CC(C)c1cc2c(cc1O)[C@@]1(C)C[C@@H](O)CC(C)(C)[C@@H]1CC2=O` [Compound 6, 2α-hydroxysugiol]: 85.7 ± 1.11%, 81.7 ± 1.37%, 66.8 ± 3.61% and “No significant effect”.
Regarding `CC(=O)OC1CC(C)(C)C2CC3OC(=O)C2(C1)c1cc(O)c(C(C)C)cc1O3` (stereo not shown) [Compound 7, Medusanthol E], in data set [1], the viability at 24 h, 12.5 µM is 82.74 ± 0.62%; the viability at 24 h, 25 µM came out at 84.9 ± 1.4%; the viability at 24 h, 50 µM turned out to be 81.8 ± 1.24%. Moreover, the “Effect on nitrite (NO) levels versus control group” value in data set [3] (12.5 µM) was “significantly reduced nitrite levels”.
For the molecule `O=c1c(O)c(-c2ccc(O)c(O)c2)oc2cc(O)cc(O)c12` [Quercetin, quercetin, reference compound], the “Effect on nitrite (NO) levels versus control group” value in data set [3] (20 µM (positive control)) is given as “significantly reduced nitrite levels”. Also, in data set [3], the IC50 stood at 11.8 ± 1.5 µM.

As usually defined, the viability is a read-out of living cells in per cent, often relative to untreated cells. In general, IC50 refers to the concentration that inhibits the measured activity by half.
